In ChEMBL document CHEMBL1136026, “4,4'-Benzophenone-O,O'-disulfamate: a potent inhibitor of steroid sulfatase” (Bioorg Med Chem Lett, 2002):

molecular target: T1, Steryl-sulfatase (Homo sapiens, UniProt P08842); test: Inhibition of human steroid sulfatase compared to EMATE
T1 sequence (P08842 whole entry): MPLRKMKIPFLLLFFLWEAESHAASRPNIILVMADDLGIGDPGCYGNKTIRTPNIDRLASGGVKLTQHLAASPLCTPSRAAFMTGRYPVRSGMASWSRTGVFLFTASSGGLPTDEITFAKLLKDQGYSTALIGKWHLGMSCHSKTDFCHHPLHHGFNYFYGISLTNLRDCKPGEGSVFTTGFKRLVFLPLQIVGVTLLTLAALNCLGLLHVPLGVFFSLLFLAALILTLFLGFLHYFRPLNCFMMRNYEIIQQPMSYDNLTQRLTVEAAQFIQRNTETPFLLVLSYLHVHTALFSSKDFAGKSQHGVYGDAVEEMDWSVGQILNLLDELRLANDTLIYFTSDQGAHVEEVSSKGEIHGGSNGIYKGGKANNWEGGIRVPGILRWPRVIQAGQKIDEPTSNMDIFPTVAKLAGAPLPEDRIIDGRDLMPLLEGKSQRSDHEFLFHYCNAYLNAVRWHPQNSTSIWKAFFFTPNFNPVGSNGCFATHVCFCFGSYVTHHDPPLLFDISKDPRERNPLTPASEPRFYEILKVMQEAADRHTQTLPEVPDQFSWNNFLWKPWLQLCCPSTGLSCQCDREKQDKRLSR

| SMILES | IC50 [µM] |
| --- | --- |
| NS(=O)(=O)Oc1ccc(C(=O)c2ccccc2)cc1 | 5.1 |
| C[C@]12CC[C@@H]3c4ccc(OS(N)(=O)=O)cc4CC[C@H]3[C@@H]1CCC2=O [EMATE] | 0.056 |
| NS(=O)(=O)Oc1cccc(C(=O)c2cccc(O)c2)c1 | 6.9 |
| COc1cccc(C(=O)c2cccc(OS(N)(=O)=O)c2)c1 | 7.1 |
| NS(=O)(=O)Oc1cccc(C(=O)c2ccccc2)c1 | 5.7 |
| COc1cccc(C(=O)c2ccc(OS(N)(=O)=O)cc2)c1 | 5.2 |
| COc1ccc(C(=O)c2cccc(OS(N)(=O)=O)c2)cc1 | 6.9 |

Continued by falling IC50, values first:

| IC50 [µM] | SMILES |
| --- | --- |
| 5 | NS(=O)(=O)Oc1cccc(C(=O)c2ccc(O)cc2)c1 |
| 4.8 | COc1ccccc1C(=O)c1ccc(OS(N)(=O)=O)cc1 |
| 4.6 | NS(=O)(=O)Oc1ccc(C(=O)c2ccccc2O)cc1 |
| 3.2 | NS(=O)(=O)Oc1cccc(C(=O)c2cccc(OS(N)(=O)=O)c2)c1 |
| 0.78 | NS(=O)(=O)Oc1ccc(C(=O)c2cccc(OS(N)(=O)=O)c2)cc1 |
| 0.19 | NS(=O)(=O)Oc1ccc(C(=O)c2ccc(OS(N)(=O)=O)cc2)cc1 |
